Results on one compound are retold here after patent US11980620B2, “Compounds and methods for treatment of Diamond Blackfan anemia” (THE CHILDREN'S MEDICAL CENTER CORPORATION, priority 2017, dated 2024).

Each structure is given as a SMILES string.

The assay relates to CB CD34+ RPS19sh cells. Description: Erythroid differentiation of CB CD34+ progenitors transduced with shRNAs for RPS19. Format: cell-based, human. Here is the method:
(FIG. 8A) The distribution of 1440 compounds by Z-score in a proliferation-based screen of the Sigma LOPAC chemical library. DBA CD34-5F cells were plated in erythroid-promoting conditions in 384-well format. Erythroid proliferation was measured in the presence of 5 μM of each compound, and converted into Z-scores. The screen was carried out with 3 RPS19 DBA and 2 normal iPSC lines. (FIG. 88) Dose-dependent effect of SMER28 (in μM) on erythroid differentiation, shown as the absolute number of erythroid cells in each drug-treated condition normalized to vehicle (DMSO) control. Erythroid cells were analyzed on day 9 of differentiation using markers CD71 and GlyA. […] (FIG. 8C) Absolute number of erythroid cells (analyzed on day 9) in each drug-treated condition normalized to vehicle (DMSO) control (4 independent experiments). […]
(FIG. 12A) Erythroid differentiation of control and DBA CD34-5F cells treated with DMSO vehicle or SMER28 (10 μM) during the initial CD34^+ progenitor phase (day 0-4 of differentiation), or stage I of erythroid culture (day 4-9 of differentiation). Percent of erythroid cells after stage I of differentiation is indicated in top left for each condition, and quantitated in (FIG. 12B). […] GFP^+ RPS19^sh and GFP^− control cells were quantitated separately. […] Arrows indicate enucleated RBCs, which are quantitated by flow cytometry. […]

Regarding `C=CCNc1ncnc2ccc(Br)cc12` [SMER28, 6-Bromo-N-2-propenyl-4-quinazolinam], the “erythroid output of RPS19sh cells” value (dose curve, highest activity at lower doses) was “robustly increased”. Besides, the erythroid output result (treatment of undifferentiated CD34+ RPS19sh cells) is reported as “sufficient to improve erythroid output”.
